US9572799B2, “Pyrazolopyridine derivatives for use in the treatment of bladder cancer” (SANOFI, priority 2013, dated 2017)
Structures can show the parent of a compound that is named as a salt.

How the values were obtained:
[1] = system: TCC97-7 bladder cancer cells carrying the Ser249Cys mutation of FGF-R3; experiment: Reduction of intracellular ATP content of TCC97-7 cells in serum-supplemented medium (Cell Titer-Glo); assay type: cell-based; conditions: 72 h, TCC97-7 cells cultured in the presence of serum, after 3 days, read-out: Inhibition of the amount of intracellular ATP (%)
Protocol: Evaluation of the Capacity of FGF-R Antagonists to Reduce the ATP Content of TCC97-7 Bladder Cancer Cells Carrying the Ser249Cys Mutation of FGF-R3, Cultured in a Serum-Supplemented Medium
To do this, 3000 cells are seeded in 50 μl of complete medium (Ham-F/12, 1% FCS, 2 mM glutamine, non-essential amino acids, sodium pyruvate, 1% insulin/transferrin/selenium, hydrocortisone). 16 hours later, 50 μl of the various compounds are added at 2 and 20 μM after dilution in complete culture medium in order to obtain final concentrations of 1 and 10 μM. After 3 days, the ATP content of the cells is measured using the Cell Titer-Glo® Luminescent Cell Viability Assay kit (Promega, France) according to the supplier's recommendations. The percentage inhibition of the amount of intracellular ATP is calculated by considering the ATP content of the cells cultured in the absence of antagonist to be 0% inhibition. 100% inhibition would correspond to a well in which the ATP content is zero.
Thus, compounds 1 to 24 are capable of inhibiting the amount of intracellular ATP in TCC97-7 cells by more than 20% at the dose of 1 or 10 μM (Table No. 3).

[2] = system: bladder cancer tumour cells of TCC97-7 type carrying the Ser249Cys mutation of FGF receptor 3; experiment: Inhibition of serum-induced proliferation of TCC97-7 bladder cancer cells (cell-covered surface area, Incucyte); assay type: cell-based; conditions: 72 h, TCC97-7 cell line in the presence of serum, after 3 days
Protocol: Evaluation of the Capacity of the FGF-R Antagonists to Inhibit Serum-Induced Proliferation of Bladder Cancer Tumour Cells of TCC97-7 Type Carrying the Ser249Cys Mutation of FGF Receptor 3
To do this, 2000 cells are seeded in the morning in 50 μl of complete medium (Ham-F/12, 1% FCS, 2 mM glutamine, non-essential amino acids, sodium pyruvate, 1% insulin/transferrin/selenium, hydrocortisone). In the evening, 50 μl of the various compounds are added at 2 or 20 μM after dilution in complete culture medium in order to obtain final concentrations of 1 or 10 μM. After 3 days, cell proliferation is evaluated by measuring the cell-covered surface area of a well of a 96 well plate. This surface area is measured using an Incucyte apparatus (Essen BioScience). The percentage inhibition of the cell proliferation is calculated by considering the surface area occupied by the TCC97-7 cells cultured in the absence of FGF-R antagonists to be 0% inhibition. 100% inhibition would correspond to a well no longer containing cells.
Thus, compounds 1 to 24 are capable of inhibiting TCC97-7 cell proliferation by more than 20% at the dose of 1 or 10 μM. (Table No. 2).

melting point [°C]	Compound	inhibition at 1 µM [1] [%]	inhibition at 10 µM [1] [%]	inhibition at 1 µM [2] [%]	inhibition at 10 µM [2] [%]
248	O=C(c1ccc(-c2cc(C(F)F)c3c(-c4ccccc4)n[nH]c3n2)cc1)N1CCCC1 (as salt: hydrochloride) [compound 5, [4-(4-Difluoromethyl-3-phenyl-1H-pyrazolo[3,4-b]pyridin-6-yl)phenyl]pyrrolidin-1-ylmethanone hydrochloride]	–	–	–	–
282	N#Cc1cc(-c2cc(C(F)F)c3c(-c4ccccc4)n[nH]c3n2)ccc1N (as salt: hydrochloride) [compound 22, 2-Amino-5-(4-difluoromethyl-3-phenyl-1H-pyrazolo[3,4-b]pyridin-6-yl)benzonitrile hydrochloride]	–	–	–	–
–	Cn1nc(-c2ccccc2)c2c(C(F)(F)F)cc(-c3cccc(C(N)=O)c3)nc21 [compound 1, 3-(1-methyl-3-phenyl-4-trifluoromethyl-1H-pyrazolo[3,4-b]pyridin-6-yl)benzamide]	10.9	41.1	8	91.6
–	CNC(=O)c1cc(-c2cc(C(F)(F)F)c3c(-c4ccccc4)nn(C)c3n2)ccc1F [compound 2, 2-Fluoro-N-methyl-5-(1-methyl-3-phenyl-4-trifluoromethyl-1H-pyrazolo[3,4-b]pyridin-6-yl)benzamide]	17.9	35.9	4	53.2
95	CN(C)c1cccc(-c2cc(C(F)(F)F)c3c(-c4ccccc4)nn(C)c3n2)c1 [compound 3, Dimethyl-[3-(1-methyl-3-phenyl-4-trifluoromethyl-1H-pyrazolo[3,4-b]pyridin-6-yl)phenyl]amine]	21.3	47.7	-32.3	40
–	CN(C)C(=O)c1cccc(-c2cc(C(F)(F)F)c3c(-c4ccccc4)nn(C)c3n2)c1 [compound 4, N,N-Dimethyl-3-(1-methyl-3-phenyl-4-trifluoromethyl-1H-pyrazolo[3,4-b]pyridin-6-yl)benzamide]	23.7	49.6	5	64.4
–	O=C(c1ccc(-c2cc(C(F)F)c3c(-c4ccccc4)n[nH]c3n2)cc1)N1CCCC1 [compound 5, [4-(4-Difluoromethyl-3-phenyl-1H-pyrazolo[3,4-b]pyridin-6-yl)phenyl]pyrrolidin-1-ylmethanone hydrochloride]	37.1	40.8	45.7	19.5
–	O=C(c1cccc(-c2cc(C(F)F)c3c(-c4ccccc4)n[nH]c3n2)c1)N1CCCC1 [compound 6, [3-(4-Difluoromethyl-3-phenyl-1H-pyrazolo[3,4-b]pyridin-6-yl)phenyl]pyrrolidin-1-ylmethanone hydrochloride]	26.9	90.5	16.2	83.9
–	FC(F)c1cc(-c2cccc(N3CCCCC3)c2)nc2[nH]nc(-c3ccccc3)c12 [compound 7, 4-Difluoromethyl-3-phenyl-6-(3-piperidin-1-ylphenyl)-1H-pyrazolo[3,4-b]pyridine hydrochloride]	20.4	78	-50.3	52.2
–	CN(C)CCn1nc(-c2ccccc2)c2c(C(F)(F)F)cc(-c3ccc(N)c(C#N)c3)nc21 [compound 8, 2-Amino-5-[1-(2-dimethylamino-ethyl)-3-phenyl-4-trifluoromethyl-1H-pyrazolo[3,4-b]pyridin-6-yl]benzonitrile]	27.7	97.8	10.8	95.2
250	COc1ncc(-c2cc(C(F)(F)F)c3c(-c4ccccc4)nn(C)c3n2)cc1C#N [compound 9, 2-Methoxy-5-(1-methyl-3-phenyl-4-trifluoromethyl-1H-pyrazolo[3,4-b]pyridin-6-yl)nicotinonitrile]	12.3	69.3	27.6	79.7
–	N#Cc1cc(-c2cc(C(F)(F)F)c3c(-c4ccccc4)nn(CCN4CCCCC4)c3n2)ccc1N [compound 10, 2-Amino-5-[3-phenyl-1-(2-piperidin-1-ylethyl)-4-trifluoromethyl-1H-pyrazolo[3,4-b]pyridin-6-yl]benzonitrile]	11	94.4	22.8	85.9
296	N#Cc1cc(-c2cc(C(F)F)c3c(-c4cccnc4)n[nH]c3n2)ccc1N [compound 11, 2-Amino-5-(4-difluoromethyl-3-pyridin-3-yl-1H-pyrazolo[3,4-b]pyridin-6-yl)benzonitrile]	21.5	25.5	50.4	19.2
–	CS(=O)(=O)Nc1cccc(-c2cc(C(F)(F)F)c3c(-c4ccccc4)n[nH]c3n2)c1 [compound 13, N-[3-(3-Phenyl-4-trifluoromethyl-1H-pyrazolo[3,4-b]pyridin-6-yl)phenyl]methanesulphonamide hydrochloride]	56	63	0	57
–	CN(C)CCn1nc(-c2ccccc2)c2c(C(F)F)cc(-c3ccc(N)c(C#N)c3)nc21 [compound 14, 2-Amino-5-[4-difluoromethyl-1-(2-dimethylaminoethyl)-3-phenyl-1H-pyrazolo[3,4-b]pyridin-6-yl]benzonitrile]	32	77	–	–
–	CNC(=O)c1cccc(-c2cc(C(F)(F)F)c3c(-c4ccccc4)n[nH]c3n2)c1 [compound 17, N-Methyl-3-(3-phenyl-4-trifluoromethyl-1H-pyrazolo[3,4-b]pyridin-6-yl)benzamide hydrochloride]	13	69	–	–
–	CN(C)c1ccc(-c2cc(C(F)(F)F)c3c(-c4ccccc4)n[nH]c3n2)cc1 [compound 19, Dimethyl-[4-(3-phenyl-4-trifluoromethyl-1H-pyrazolo[3,4-b]pyridin-6-yl)phenyl]amine]	30	63	–	–
–	N#Cc1cc(-c2cc(C(F)(F)F)c3c(-c4ccccc4)n[nH]c3n2)ccc1F [compound 20, 2-Fluoro-5-(3-phenyl-4-trifluoromethyl-1H-pyrazolo[3,4-b]pyridin-6-yl)benzonitrile]	11	26	–	–
–	Cn1nc(-c2ccccc2)c2c(C(F)(F)F)cc(-c3cccc(NS(C)(=O)=O)c3)nc21 [compound 21, N-[3-(1-Methyl-3-phenyl-4-trifluoromethyl-1H-pyrazolo[3,4-b]pyridin-6-yl)phenyl]methanesulphonamide]	-1	25	-3	61
–	N#Cc1cc(-c2cc(C(F)F)c3c(-c4ccccc4)n[nH]c3n2)ccc1N [compound 22, 2-Amino-5-(4-difluoromethyl-3-phenyl-1H-pyrazolo[3,4-b]pyridin-6-yl)benzonitrile hydrochloride]	27	53	–	–
–	Cn1nc(-c2ccccc2)c2c(C(F)(F)F)cc(-c3ccc(C(=O)O)cc3)nc21 [compound 23, 4-(1-Methyl-3-phenyl-4-trifluoromethyl-1H-pyrazolo[3,4-b]pyridin-6-yl)benzoic acid]	17	40	8	33
–	FC(F)(F)c1cc(-c2ccc(N3CCOCC3)cc2)nc2[nH]nc(-c3ccccc3)c12 [compound 24, 6-(4-Morpholin-4-ylphenyl)-3-phenyl-4-trifluoromethyl-1H-pyrazolo[3,4-b]pyridine hydrochloride]	6	27	–	–

Compound	melting point [°C]	inhibition at 1 µM [1] [%]	inhibition at 10 µM [1] [%]	inhibition at 1 µM [2] [%]	inhibition at 10 µM [2] [%]
Nc1ccc(-c2cc(C(F)(F)F)c3c(-c4ccccc4)n[nH]c3n2)cc1 [compound 16, 4-(3-Phenyl-4-trifluoromethyl-1H-pyrazolo[3,4-b]pyridin-6-yl)phenylamine]	237	24	38	–	–
